# In PubChem BioAssay AID1645865 (Buhrlage Lab, Dana-Farber Cancer Institute and Novartis …, 2021):
# Calls of active or inactive are those of the source.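 How the source made its calls: active means maximal inhibition of the USP30 enzyme reaching 30% or more across the dose series; inactive means the rest.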
# Target: Ubiquitin carboxyl-terminal hydrolase 30 (Homo sapiens) (UniProt Q70CQ3)
# Test: inhibitors of ubiquitin-specific protease 30 deubiquitylating enzyme, concentration dependence, in vitro biochemical, validation of primary hits (AID 1645865)
# Settings: purified USP30, Ub-rhodamine cleavage, fluorescence, 2 h
# Sequence of Ubiquitin carboxyl-terminal hydrolase 30 (Homo sapiens) (Q70CQ3 whole entry, looked up): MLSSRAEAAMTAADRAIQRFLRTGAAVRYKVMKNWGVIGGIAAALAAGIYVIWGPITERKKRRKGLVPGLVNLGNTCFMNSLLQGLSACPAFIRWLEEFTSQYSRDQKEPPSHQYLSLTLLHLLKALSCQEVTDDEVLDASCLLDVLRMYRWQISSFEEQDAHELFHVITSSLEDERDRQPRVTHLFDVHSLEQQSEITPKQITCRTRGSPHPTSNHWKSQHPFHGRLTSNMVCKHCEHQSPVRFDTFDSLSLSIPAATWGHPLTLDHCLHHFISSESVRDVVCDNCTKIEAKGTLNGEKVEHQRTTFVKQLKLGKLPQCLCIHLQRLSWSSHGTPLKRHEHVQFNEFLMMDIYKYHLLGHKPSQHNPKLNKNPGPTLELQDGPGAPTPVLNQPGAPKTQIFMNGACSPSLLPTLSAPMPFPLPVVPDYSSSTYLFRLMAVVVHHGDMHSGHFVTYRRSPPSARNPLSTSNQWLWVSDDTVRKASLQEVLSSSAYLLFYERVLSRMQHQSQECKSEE
row,SMILES,IC50
1,CN1C(=O)COc2cc(-c3noc(C(=O)NC4CCCCCC4)n3)ccc21,24.7 µM
2,Nc1c(C(=O)Nc2ccc3c(c2)OCO3)sc2nc(-c3cccnc3)ccc12,0.545 µM
3,CSc1nccc(-c2ccc(F)cc2)c1C#N,36.3 µM
4,CCCOc1ccc(C(=O)Nc2ccc(S(=O)(=O)Nc3cc(C)nc(C)n3)cc2)cc1,> 50 µM (inactive)
5,O=C(Nc1ccc2c(c1)OCCO2)c1cc(CN2CCCC2)on1,> 50 µM (inactive)
6,Cc1ccccc1NC(=O)c1ccc(N2CCCCC2)nn1,> 50 µM (inactive)
7,COCCn1c(=O)[nH]c2cc(C(=O)NCCNc3ccc([N+](=O)[O-])cc3C#N)ccc2c1=O,2.35 µM
8,COc1ccc(N2C(=O)[C@@H]3[C@H]4c5ccccc5C=CN4C(C(=O)Nc4ccc5c(c4)OCO5)[C@@H]3C2=O)cc1 (stereo partly drawn),> 50 µM (inactive)
9,CN(C)CCc1cc2c(c3c1ccc1ccccc13)OCO2,> 5 µM (inactive)
10,Cc1ccc(-c2nc(N3CCCC(O)C3)ncc2-c2cnccn2)s1 (stereo not drawn),> 50 µM (inactive)
11,Cc1nnc(NC(=O)C2CCN(c3ccc(S(N)(=O)=O)cc3[N+](=O)[O-])CC2)o1,40.9 µM
12,CC1(C)Cc2c(c(-c3ccco3)nc3sc4c(SCCCc5ccccc5)ncnc4c23)CO1,> 50 µM (inactive)
13,CN(C)c1cccc(C(=O)Nc2cc(-c3cccnc3)no2)c1,16.6 µM
14,Cc1ccc(-c2nc(-c3cccs3)cc(C(F)(F)F)c2C#N)cc1,> 50 µM (inactive)
15,CC(=O)Nc1ccc(NC(=O)c2cc(-c3cc(C)cc(C)c3O)n[nH]2)cc1,12 µM
16,Cc1ccc(C)c(Cn2nnc3c(=O)[nH]c(C4CCN(S(=O)(=O)c5ccc(S(=O)(=O)NC6CC6)cc5)CC4)nc32)c1,30.4 µM
17,Cc1sc2nc(CN3CCCC3)nc(NCCc3ccc(Cl)cc3)c2c1C,> 50 µM (inactive)
18,COc1cccc(NC(=O)Nc2ccc(NC(C)=O)cc2)c1,17.9 µM
19,Cc1cc(C)c(O)c(-c2cc(C(=O)Nc3ccccc3Cl)[nH]n2)c1,2.1 µM
20,COc1cnc(CSc2ncccn2)cc1OCC(=O)Nc1cc(C)ccc1C,41.3 µM
21,CC(C)Cc1cc(-c2nnc3sc(-c4ccco4)nn23)n[nH]1,> 50 µM (inactive)
22,Cc1cccc(-c2nc3n(CC(=O)Nc4ccc(Cl)cc4)c(C)cc(=O)n3n2)c1,0.179 µM
23,O=S1(=O)CCN(CC2CCCO2)c2c(Oc3ccccc3)nc(F)c(Cl)c21 (stereo not drawn),> 50 µM (inactive)
24,CC(C)CCCCCCCCCCC(=O)N(C)[C@H](CO)C(=O)N[C@H](C)C(=O)NCC(=O)N(C)C1C(=O)N[C@@H](C)C(=O)NC(C(=O)O)Cc2ccc(O)c(c2)-c2cc1ccc2O (stereo partly drawn),> 50 µM (inactive)
25,NS(=O)(=O)c1ccc(NS(=O)(=O)c2ccc(NC(=O)Nc3ccc(Cl)cc3)cc2)cc1,29.4 µM

row,SMILES,IC50
1,CCCCc1nc2sc3c(SCC(=O)Nc4cccc(C)c4)ncnc3c2c2c1CCC2,> 50 µM (inactive)
2,O=C(COc1ccc2c(c1)CCC2)Nc1ccc2c(c1)CCC2,26.3 µM
3,O=C(COC(=O)CCc1ccc(S(=O)(=O)N2CCOCC2)cc1)Nc1ccc2c(c1)OCCO2,> 50 µM (inactive)
4,COc1ccc(CCNc2c(-c3ccccc3O)nc3cnccn23)cc1OC,> 50 µM (inactive)
5,O=C(Nc1cc(-c2cccnc2)no1)c1ccc(F)c(F)c1,20 µM
6,CCOc1ccc2[nH]c(=O)c(CN(C(=O)c3cccs3)C3CCCC3)cc2c1,10.2 µM
7,O=[N+]([O-])c1ccc2c(c1)nc1n2CCN(Cc2ccco2)C1,> 50 µM (inactive)
8,COC(=O)c1ccc(C(=O)Nc2cc3ccccc3cc2NC(=O)c2ccc(C(=O)OC)cc2)cc1,0.853 µM
9,Cc1c(OCC(=O)NCC(=O)N2CCC3(O)CCCCC3C2)ccc2c3c(c(=O)oc12)CCCC3 (stereo not drawn),23.7 µM
10,CNC(=O)c1cc2nc(N(C)C)n(-c3ccccc3)c2s1,> 50 µM (inactive)
11,Cc1ccn(-c2ccc(NC(=O)C3CCCCC3)cc2)n1,17.2 µM
12,CCCCCn1c(Sc2ccc(C)cc2)nc2c1c(=O)[nH]c(=O)n2C,11.3 µM
13,CCC(=O)Nc1ccc2c(c1)nc(CSc1nccc(C)n1)n2CC,> 50 µM (inactive)
14,C/C=C\C1=CC(=O)[C@]23C[C@H]2[C@]2(C)CO[C@@]1(O)[C@@]3(O)O2,> 50 µM (inactive)
15,CCn1c(COc2cccc(C(F)(F)F)c2)nnc1SCc1ccc(Cl)cc1,15.9 µM
16,CCNc1nc(SCC(C)=O)nc2sc3c(c12)CCC(C)C3 (stereo not drawn),> 50 µM (inactive)
17,O=C(NCc1cccnc1)C1CCN(c2cnc(N3CCCCCC3)nc2)CC1,> 50 µM (inactive)
18,COc1ccc(-c2cc(-c3nnc(CSc4nc5ccccc5n4C)o3)c3ccccc3n2)cc1OC,> 50 µM (inactive)
19,CCC(C(=O)NCc1ccncc1)N(c1cccc(Cl)c1)S(C)(=O)=O (stereo not drawn),> 50 µM (inactive)
20,Clc1cccc(N2CCN(c3ncnc4nc[nH]c34)CC2)c1,24.6 µM
21,Cc1nc2nc(SCc3nc4ccccc4n3C)[nH]c2cc1Br,4.82 µM
22,COc1cccc(-c2cc(C(=O)N3CCN(c4ccc(N5CCOCC5)nn4)CC3)[nH]n2)c1,38.5 µM
23,Oc1sc(C=Nc2cc(Cl)ccc2Cl)c2ccccc12,0.981 µM
24,COc1ccc(NS(=O)(=O)c2ccc(NC(=O)Nc3ccc(Cl)cc3)cc2)cc1,18.3 µM
25,CCOc1ccc(CCNC(=O)CCC(=O)Nc2ccc3nc(N4CCN(C)CC4)cc(C)c3c2)cc1OCC,> 50 µM (inactive)

# Further lines, results first:
row,IC50,SMILES
1,> 50 µM (inactive),Cc1ccc2c(=O)c3c([nH]c2c1C)CCN(CC(=O)NCc1ccccc1)C3
2,> 50 µM (inactive),c1ccc2c(c1)CCc1c-2nc2ccccc2c1N1CCOCC1
3,14.6 µM,Cn1c(=O)/c(=C/c2ccccc2)[nH]c(=O)/c1=C/c1ccccc1
4,> 50 µM (inactive),O=C(c1cccnc1)N1CCC2(CC1)CC1(CO2)Nc2ccccc2-n2cccc21 (stereo not drawn)
5,> 50 µM (inactive),O=C(Nc1ccc2c(c1)OCO2)c1cc(-c2cccnc2)n(-c2ccccc2)n1
6,44.2 µM,O=C(NCc1ccc2c(c1)OCO2)c1nnc(Cc2ccc(F)cc2)o1
7,> 50 µM (inactive),c1ccc2c(Cc3nc(-c4ccncc4)no3)cccc2c1
8,> 50 µM (inactive),O=C(c1ccnn1-c1ccc2ccc(-c3ccncc3)cn12)N1CCCC1
9,23.1 µM,CCn1cc(-c2nc(-c3ccccn3)no2)c(=O)c2cc(F)ccc21
10,> 50 µM (inactive),CC1CCCCN1c1nc(F)c2c(c1F)S(=O)(=O)CCN2Cc1ccccc1 (stereo not drawn)
11,15.8 µM,CN(Cc1ccccc1)S(=O)(=O)c1ccc(S(=O)(=O)N2CCN(C(=O)c3cccnc3)CC2)cc1
12,> 50 µM (inactive),Cc1cccc(C(=O)N2CCN3Cc4ccccc4N(C)CC3C2)c1 (stereo not drawn)
13,> 50 µM (inactive),Cc1c2c(nc3ccccc13)-c1ccccc1CC2
14,37.1 µM,COc1ccc(S(=O)(=O)N2CCC3(CC2)OC(=O)Nc2ccccc23)cc1
15,46.2 µM,CC(=O)c1ccc(NC(=O)CC2C(=O)Nc3nc4ccccc4n32)cc1 (stereo not drawn)
16,> 50 µM (inactive),NS(=O)(=O)c1cccc(NC(=O)CN2CCCc3ccccc32)c1
17,35.8 µM,C[C@]12C(=O)N(c3ccc(C(=O)NCc4ccc(F)cc4)cc3)C(=O)N1CCc1c2[nH]c2ccccc12
18,41.5 µM,CCOc1ccc(N2C(=O)c3ccccc3C2C(=O)NCc2ccccc2OC)cc1 (stereo not drawn)
19,44 µM,COc1ccc(CCNC(=O)[C@H](CCSC)NC(=O)N2CCn3c2nc2ccccc23)cc1OC
20,1.82 µM,CC1(C)Cc2c(sc3nc(Cc4ccccc4)nc(SCC(=O)Nc4ccccc4)c23)CO1
21,35.6 µM,COc1ccccc1NC(=O)CNC(=O)c1nn(-c2ccc(OC)c(OC)c2)c(=O)c2ccccc12
22,> 50 µM (inactive),O=C(c1ccc(N2CCc3ccccc32)nn1)N1CCc2ccccc21
23,8.55 µM,COc1ccc(NC(=O)Nc2cccc(-c3nnc(-c4ccccc4)o3)c2)cc1OC
24,4.23 µM,COc1ccc(-c2cc3c(=O)n(CC(=O)Nc4ccccc4Cl)ccn3n2)cc1

row,IC50,SMILES
1,4.83 µM,Cc1ccc(-c2nc(Cn3cnc4ccccc4c3=O)cs2)cc1
2,> 50 µM (inactive),O=c1[nH]c(-c2ccccn2)nc2c1CCN(Cc1cnn(-c3ccccc3)c1)C2
3,> 50 µM (inactive),Cc1ccc(Cn2nnc(C(=O)NCc3ccco3)c2-n2cccc2)cc1
4,20.2 µM,Cc1cccc(OCCn2c(CCNC(=O)C3CCCCC3)nc3ccccc32)c1
5,> 50 µM (inactive),O=C(NCc1ccc(F)cc1)N1CCC2(C1)Nc1cccnc1NC2=NCc1ccccc1 (stereo not drawn)
6,4.71 µM,CC(C)Cc1nc2sc3c(NCc4ccccc4)ncnc3c2c2c1COC(C)(C)C2
7,21.5 µM,Clc1ccccc1CSc1nnc(C2CCCCC2)n1Cc1ccccc1
8,> 50 µM (inactive),O=C(O)COc1ccccc1/C=C1\CCc2c1nc1ccccc1c2C(=O)O
9,> 50 µM (inactive),COc1ccc(-c2cc(C(=O)N3CCN(c4ccc([N+](=O)[O-])cc4)CC3)[nH]n2)cc1
10,> 50 µM (inactive),O=c1[nH]c2ccccc2cc1CN(Cc1ccco1)S(=O)(=O)c1ccc(F)cc1
11,> 50 µM (inactive),Cc1cccc(C(=O)N2CCc3cc(-c4nc(NC(=O)CNc5ccccc5)sc4C)ccc32)c1
12,38.2 µM,COc1ccc(-c2ccnc(-c3ccc(OCc4cccc(F)c4)cc3)n2)cc1
13,> 50 µM (inactive),CN(C(=O)c1ccncc1)[C@H]1CC[C@@]2(C)C[C@H](c3ccccc3)C[C@](C)(O2)[C@@H]1O
14,3.28 µM,CC1CCc2sc(NC(=O)c3ccccc3Oc3ccccc3)c(C(N)=O)c2C1 (stereo not drawn)
15,> 50 µM (inactive),CCN(CC)c1nc(F)c2c(c1F)S(=O)(=O)CCN2Cc1ccccc1
16,2.28 µM,CC(C)(C)C(=O)Nc1ccc(C(=O)Nc2cccc(-c3nnc(-c4ccccc4)o3)c2)cc1
17,> 50 µM (inactive),O=C(c1ccc2ncccc2c1)N1CCC2(C1)Nc1cccnc1NC2=NC1CCCC1 (stereo not drawn)
18,> 50 µM (inactive),O=C(COC(=O)c1ccc2ncsc2c1)Nc1ccccc1F
19,> 50 µM (inactive),Cc1c(-c2ccccc2)oc2c(C(=O)OCC(=O)Nc3ccccc3F)cccc2c1=O
20,> 50 µM (inactive),Cc1cc(Nc2ccc(C(=O)NCc3ccco3)cc2)n2nc(-c3cccnc3)nc2n1
21,3.46 µM,Cc1ccccc1NC(=O)c1nc(-c2cn(Cc3ccc(F)cc3)nn2)no1
22,> 50 µM (inactive),O=C(c1nnn(Cc2ccc(Cl)cc2)c1-n1cccc1)N1CCCC1
23,45.2 µM,COc1ccc(C(=O)NCc2csc3ccccc23)cc1
24,> 50 µM (inactive),FC(F)(F)c1ccccc1CCN1CCc2nc3ccc(Cl)cc3cc2C1
